Here are results for one molecule from patent US20040229825A1, “Pharmaceutical composition for treatment of infection with drug resistant bacterium and disinfectant” (priority 2003, published 2004).

Structures are written as SMILES. ≈ marks a conversion by molar mass, not a printed value.

For one data set, the system named is MRSA infected mouse. Put plainly: Antibacterial activity on MRSA infected mouse (survival rate after 5 days). Conditions: rutin alone. It is filed as in vivo. As for the experimental part:
MRSA was incubated with Brain-Heart Infusion medium at 37° C. for 18 hours, and then the bacteria were collected and washed, followed by resuspension in saline. The suspension was admixed in an aqueous 5% gastric mucin solution and the concentration was adjusted to a predetermined value. Then, 0.2 mL of the mixture was intraperitoneally administered to an ICR strain SPF mouse. At one hour after the infection, various concentrations of β-lactam agents and rutin (0.2 mL) was subcutaneously administered, and survival rate was analyzed after 5 days and thus the effectiveness was evaluated. In addition, the effectiveness by oral administration (0.2 mL) was evaluated and various concentrations of β-lactam agents and rutin (0.2 mL) were administered using a gastric probe 1 hour or 5 hours prior to the infection.

Data set [1] can be described thus: Dissolution of rutin (auxiliary effects of L-arginine hydrochloride and L-cysteine); solubility in water. It is filed as physicochemical. Conditions: aqueous with cosolvent or surfactant or cyclodextrin; solution with 4 mmol L-arginine hydrochloride, 1 mmol L-cysteine, 8 mmol 1 N NaOH, adjusted to pH 8.5, precipitate removed. As for the experimental part: To the solution B, is added 3.5 mL of the solution A. After adjusting the pH of the mixture to 8.5 with HCl, the mixture is filtered to give an injectable.

As a reminder, the solubility is how much of the substance goes into solution per volume. Take `C[C@@H]1O[C@@H](OC[C@H]2O[C@@H](Oc3c(-c4ccc(O)c(O)c4)oc4cc(O)cc(O)c4c3=O)[C@H](O)[C@@H](O)[C@@H]2O)[C@H](O)[C@H](O)[C@H]1O` [rutin]: the survival rate in the data set on MRSA infected mouse (oral, 1 mg/mouse) is reported as 20%; with MRSA infected mouse (oral, 5 mg/mouse), 20%; with MRSA infected mouse (oral, 10 mg/mouse), 20%; with MRSA infected mouse (oral, 15 mg/mouse) it was 40%; with MRSA infected mouse (subcutaneous, 1 mg/mouse), 40%; with MRSA infected mouse (subcutaneous, 5 mg/mouse) it was 40%. Also, the survival rate is given as 20% in the data set on MRSA infected mouse (subcutaneous, 10 mg/mouse) and 40% in the data set with MRSA infected mouse (subcutaneous, 15 mg/mouse). The same molecule showed a solubility in data set [1] of 49.8 mg/mL (≈ 81.6 mM).
